In patent US20040266805A1, “Inflammation modulatory compound” (priority 2001, published 2004):
Values joined by “and” are separate entries in the source; they are usually repeats but may differ in a detail not shown here. Equal values may be shown once.

Legend:
[1] = test system: Splenocytes and thymocytes; test: Apoptosis by Annexin-V staining and flow cytometry; type: cell-based, rat; details: for Effect on apoptosis in cells following any of the culture periods: culture 6, 24, 48 or 72 h; for Effect on ConA-induced apoptosis in thymocytes: morphine 10^−8 to 10^−18 mol/l; for Effect on apoptosis in basal non-activated splenocytes and thymocytes: pre-incubation 1 h, basal apoptosis 4-8%
Method: Splenocytes and thymocytes obtained from adult male Wistar rats were cultured as previously described (10). Cells were incubated with EM-1, EM-2 or morphine at various concentrations for 1 h and were then activated with either Concanavalin A (ConA, 5 μg/ml, Sigma UK) or lipopolysaccharide (LPS, 25 μg/ml, Sigma, UK) and cultured for 6, 24, 48 or 72 h. After culture, cells were stained with Annexin-V-Fluos (Roche, Mannheim, Germany) and analysed by flow cytometry (Becton Dickinson, UK). Apoptosis in basal non-activated splenocytes and thymocytes was 4-8%, and pre-incubation with EM-1, EM-2 or morphine had no effect on this. ConA at 1 or 5 μg/ml induced 10-15 and 20-30% apoptosis respectively in rat splenocytes, values which were not altered by pre-incubation with EM-2 at concentrations of 10^−8 to 10^−18 mol/l. […] No effect of morphine, EM-1 or EM-2 was observed on apoptosis in cells following any of the culture periods.

[2] = test system: rat Fas in splenocytes and thymocytes; test: Fas expression by antibody staining and flow cytometry; type: cell-based; details: basal or ConA activated splenocytes and thymocytes, cultured 6 h
Method: Splenocytes and thymocytes, whether basal or ConA activated, were cultured for 6h in the presence of EM-1, EM-2 or morphine (concentration ranges as above) and were then stained with an antibody specific for rat Fas (Transduction Laboratories, Lexington, Ky., USA) and analysed by flow cytometry.

[3] = test system: arthritic male Wistar rats; test: Intraperitoneal administration of EM-1 prior to onset of inflammation in arthritic rats; type: in vivo, rat; design: Mean Paw Volume: unit not given beside the values; details: for Mean Paw Volume: n=7
Method: (§1) Adjuvant arthritis (AA) was induced in adult male Wistar rats using the same protocol as described in Example 2 with saline vehicle or endomorphin 1 in saline being injected on days 9, 10, 11, 12 and 13 after adjuvant injection and prior to the onset of inflammation.
The protocol of Example 3 above was followed using intraperitoneal injection of 0.1 and 1.0 μmol Endomorphin-1 or vehicle in arthritic male Wistar rats prior to the onset of inflammation.
EM-1 or vehicle was administered on days 9, 10, 11, 12 and 13.

[4] = test system: Adjuvant arthritis (AA) in adult male Wistar rats; test: Intraplantar treatment with endomorphin 1 prior to onset of inflammation in adjuvant arthritis rats; type: in vivo, rat; details: for Mean Paw Volume: days 9-13, day 14, vehicle 2.924
Method: (§2) Adjuvant arthritis (AA) was induced in adult male Wistar rats by a single intradermal injection (0.1 ml) of a suspension of ground, heat-killed M. butyricum in paraffin oil (10 mg/ml) into the tail base (9). Rats were despatched 14 days following injection and spleens, thymuses and hind paws were collected on dry ice and stored at −80° C. Spleens, thymuses and synovial tissue from the paws were acid-extracted and the extracts were measured for the presence of EM-1 and EM-2 by RIAs (8). EM-1 contents in the spleen (p<0.05) and thymus (p<0.075) were elevated compared to tissues from non-AA controls (FIG. 4). […] Neither EM-1 or EM-2 were detectable in extracts of synovial tissues from control non-AA rats (FIG. 5).
as §1

[5] = test system: Adjuvant arthritis (AA) in adult male Lewis rats; test: Intraperitoneal treatment of existing inflammation with endomorphin in adjuvant arthritis rats; type: in vivo, rat
Method: as §2
Adjuvant arthritis (AA) was induced in adult male Lewis rats as above. Saline vehicle or 1 μmol of endomorphin in saline was given as an intraperitoneal (ip) injection on days 11, 12 and 13 after adjuvant injection, and after the onset of inflammation, to assess the modulation effect of the endomorphin.

Compound	Effect on apoptosis in cells following any of the culture periods [1]	Effect on ConA-induced apoptosis in thymocytes [1]	Effect on apoptosis in basal non-activated splenocytes and thymocytes [1]	Alteration in expression of Fas [2]	Mean Paw Volume ([3]; 0.1 μmol ip group, Day 0 (before treatment on days 9-13))	Mean Paw Volume ([3]; 0.1 μmol ip on days 9-13, Day 14, vehicle 2.927)	Mean Paw Volume ([3]; 1.0 μmol ip group, Day 0 (before treatment on days 9-13))	Mean Paw Volume ([3]; 1.0 μmol ip on days 9-13, Day 14, vehicle 2.927)	Reduction in inflammation ([3]; 1 μmol ip, prophylactically) [%]	Mean Paw Volume ([4]; 10 pmol intraplantar, n=14) [mL]	Mean Paw Volume ([4]; 100 pmol intraplantar, n=14) [mL]	Mean Paw Volume ([4]; 1 nmol intraplantar, n=12) [mL]	Mean Paw Volume ([4]; 10 nmol intraplantar, n=14) [mL]	Mean Paw Volume ([4]; 100 fmol intraplantar, n=14) [mL]	Reduction of inflammation (decrease in paw volume compared to the vehicle group) ([4]; intraplantar injection, 100 fmols) [%]	Effect on existing inflammation ([5]; dose of 1 μmol ip)	Paw Volume ([5]; individual rats, 1 μmol ip on days 11, 12 and 13 after adjuvant, after onset of inflammation, day 14, listed as Endomorphin (EM-1))	Paw Volume, mean ([5]; n=8, SEM=0.10, 1 μmol ip on days 11, 12 and 13, day 14, vehicle mean 2.96) [mL]	Effect on ConA-induced apoptosis in rat splenocytes ([1]; ConA 1 or 5 μg/ml, pre-incubation at 10^−8 to 10^−18 mol/l)	Effect on LPS-induced apoptosis ([1]; LPS 5 and 25 μg/ml, 10-12% apoptosis)
CN1CC[C@]23c4c5ccc(O)c4O[C@H]2[C@@H](O)C=C[C@H]3[C@H]1C5 [morphine, reference compound]	No effect	Neither EM-1, EM-2 nor morphine (concentration range of morphine 10^−8 to 10^−18 mol/l) had any effect	had no effect	No alteration	–	–	–	–	–	–	–	–	–	–	–	–	–	–	–	–
endomorphin-1 [EM-1]	No effect	Neither EM-1, EM-2 nor morphine (concentration range of morphine 10^−8 to 10^−18 mol/l) had any effect	had no effect	No alteration	1.613	2.494	1.723	2.349	20	2.779	2.381	2.638	2.260	2.450	≤ 16	reduce existing inflammation	3.15 ml and 3.04 ml and 2.57 ml (2×) and 2.41 ml and 2.81 ml and 2.35 ml and 2.61 ml	2.69	–	–
endomorphin-2 [EM-2]	No effect	Neither EM-1, EM-2 nor morphine (concentration range of morphine 10^−8 to 10^−18 mol/l) had any effect	had no effect	No alteration	–	–	–	–	–	–	–	–	–	–	–	–	–	–	not altered	did not alter
